This note sets out measurements from patent US10829488B2, “N-(phenylsulfonyl)benzamides and related compounds as bcl-2 inhibitors” (THE REGENTS OF THE UNIVERSITY OF MICHIGAN, priority 2016, dated 2020).

Read-outs that look alike come from different tables or passages of the source.

One data set is described as follows: Pharmacokinetics in rats. The note with it: rat, in vivo. On the procedure: The pharmacokinetics of ABT-199 and representative Compounds of the Disclosure were evaluated in rats at an IV dose of 2 mg/kg and an oral dose of 20 mg/kg.
Data set [1] is described as follows: Mouse weight in RS4;11 leukemia xenograft model. The format is in vivo. The settings on record: nude mice, oral gavage, FIG. 4. The protocol:
(§1) The antitumor activity of Cpd. No. 6 (compound 6) was also studied in the RS4;11 leukemia xenograft model. Human RS4;11 tumor cells were injected into nude mice and treatment started on day 11 when the tumor size reached approximately 100 mm^3. Cpd. No. 6 was administered via oral gavage at indicated doses and schedules. Cpd.

Data set [2] has as its system RS4;11 leukemia xenograft. The experiment in a line: Antitumor activity in RS4;11 leukemia xenograft model. The class given is in vivo. The note with it: nude mice, oral gavage, treatment started day 11, FIG. 3. The protocol: as §1
Where [3] appears, read: IV 2 mg/kg, read-out: AUC0-∞ (ng · h/mL) IV.
Setting [4] is: oral 20 mg/kg, read-out: AUC0-∞ (ng · h/mL) PO.

On to `CC1(C)CCC(CN2CCN(c3ccc(C(=O)NS(=O)(=O)c4ccc(NCC5CCOCC5)c([N+](=O)[O-])c4)c(Oc4cnc5[nH]ccc5c4)c3)CC2)=C(c2ccc(Cl)cc2)C1` [ABT-199, Venetoclax, reference compound], for which the AUC(0-inf) came out at 5450 ng·h/mL in the data set “Pharmacokinetics in rats” (setting [3]) and 20800 ng·h/mL in “Pharmacokinetics in rats” (setting [4]).
For the compound `O=C(NS(=O)(=O)c1ccc(NCC2CCOCC2)c([N+](=O)[O-])c1)c1ccc(N2CCN(CC3=C(c4ccc(Cl)cc4)CC4(CCC4)CC3)CC2)cc1Oc1cnc2[nH]ccc2c1` [Cpd. No. 3, 2-((1H-pyrrolo[2,3-b]pyridin-5-yl)oxy)-4-(4-((6-(4-chlorophenyl)spiro[3.5]non-6-en-7-yl)methyl)piperazin-1-yl)-N-((3-nitro-4-(((tetrahydro-2H-pyran-4-yl)methyl)amino)phenyl)sulfonyl)benzamide], the AUC(0-inf) was determined as 2680 ng·h/mL in “Pharmacokinetics in rats” (setting [3]) and 7780 ng·h/mL in the data set “Pharmacokinetics in rats” (setting [4]).
Take `O=C(NS(=O)(=O)c1ccc(NC[C@H]2COCCO2)c([N+](=O)[O-])c1)c1ccc(N2CCN(CC3=C(c4ccc(Cl)cc4)CC4(CCC4)CC3)CC2)cc1Oc1cnc2[nH]ccc2c1` [Cpd. No. 6, (S)-N-((4-(((1,4-dioxan-2-yl)methyl)amino)-3-nitrophenyl)sulfonyl)-2-((1H-pyrrolo[2,3-b]pyridin-5-yl)oxy)-4-(4-((6-(4-chlorophenyl)spiro[3.5]non-6-en-7-yl)methyl)piperazin-1-yl)benzamide]: the Mouse weight result in data set [1] was “does not cause weight loss”. Moreover, the “Antitumor activity (tumor growth)” value in data set [2] was “inhibits tumor growth”. In addition, the AUC(0-inf) in the data set “Pharmacokinetics in rats” (setting [3]) is 2920 ng·h/mL; in the data set “Pharmacokinetics in rats” (setting [4]), 13500 ng·h/mL.
